The target in one assay is phosphorylated active hERK2 enzyme (Homo sapiens (Human), UniProt P28482). The assay can be described thus: Active Human ERK2 (hERK2) Activity Assay (IMAP-FP). The assay is classed as biochemical. Conditions: Table 5, 0.5 nM hERK2, 30 μM ATP, 10 point titration, read-out: AERK2 IC50. The procedure, abridged:
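IMAP detection beads in buffer with 24 mM NaCl stopped the reaction, and fluorescence polarization was read after 60 min binding.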
Sequence of phosphorylated active hERK2 enzyme (P28482 whole entry): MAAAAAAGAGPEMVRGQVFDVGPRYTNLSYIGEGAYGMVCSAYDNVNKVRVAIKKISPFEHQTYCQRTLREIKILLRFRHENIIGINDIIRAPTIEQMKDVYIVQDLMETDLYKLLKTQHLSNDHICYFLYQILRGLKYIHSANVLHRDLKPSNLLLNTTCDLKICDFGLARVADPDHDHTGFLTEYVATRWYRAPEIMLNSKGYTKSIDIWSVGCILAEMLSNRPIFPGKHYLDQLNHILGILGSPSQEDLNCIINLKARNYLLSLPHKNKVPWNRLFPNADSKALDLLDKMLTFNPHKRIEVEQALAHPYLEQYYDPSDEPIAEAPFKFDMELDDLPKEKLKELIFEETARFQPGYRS
`C[C@@H](NC(=O)Nc1cc2[nH]nc(N3CCC3)c2cn1)c1ccccc1` [Example 25, 1-(3-azetidin-1-yl-1H-pyrazolo[4,3-c]pyridin-6-yl)-3-[(1R)-1-phenylethyl]urea]: the concentration for half-maximal inhibition (IC50) stood at 4.78 nM. The same measure, in the same setting: under `CCN(CC)c1n[nH]c2cc(NC(=O)N[C@H](COC)c3ccccc3)ncc12` [Example 21, 1-[3-(diethylamino)-1H-pyrazolo[4,3-c]pyridin-6-yl]-3-[(1S)-2-methoxy-1-phenylethyl]urea] stands 10.4 nM; under `COC[C@@H](NC(=O)Nc1cc2[nH]nc(N3CCCC3)c2cn1)c1ccccc1` [Example 28, 1-[(1S)-2-methoxy-1-phenylethyl]-3-(3-pyrrolidin-1-yl-1H-pyrazolo[4,3-c]pyridin-6-yl)urea], 1 nM. On to `C[C@@H](NC(=O)Nc1cc2[nH]nc(N(C)C)c2cn1)c1ccccc1` [Example 19, 1-[3-(dimethylamino)-1H-pyrazolo[4,3-c]pyridin-6-yl]-3-[(1R)-1-phenylethyl]urea], for which the IC50 came out at 13.8 nM. With `COC[C@@H](C)NC(=O)Nc1cc2[nH]nc(N3CCOCC3)c2cn1` [Example 11, 1-[(1R)-2-methoxy-1-methylethyl]-3-(3-morpholin-4-yl-1H-pyrazolo[4,3-c]pyridin-6-yl)urea], the IC50 was determined as 30 nM.

Staying with this assay, now noted: Table 6, 0.5 nM hERK2, 30 μM ATP, 10 point titration, read-out: AERK2 IC50.
For `C[C@@H](NC(=O)Nc1cc2[nH]nc(N3CCc4scnc4C3)c2cn1)c1ccc(F)cc1` [Example 63, 1-[3-(6,7-dihydro[1,3]thiazolo-[4,5-c]pyridin-5(4H)-yl)-1H-pyrazolo[4,3-c]pyridin-6-yl]-3-[(1R)-1-(4-fluorophenyl)ethyl]-urea], the IC50 stood at 5.8 nM. With `COC(=O)Nc1n[nH]c2cc(NC(=O)N[C@@H](c3ccccc3)C(C)(C)O)ncc12` [Example 389, methyl [6-({[(1S)-2-hydroxy-2-methyl-1-phenyl-propyl]carbamoyl}amino)-1H-pyrazolo[4,3-c]-pyridin-3-yl]-carbamate], the half-inhibitory concentration (IC50) turned out to be 0.4 nM.

In the case of `Nc1n[nH]c2cc(NC(=O)NC3CNc4ccccc4C3)ncc12` (centres unmarked) [Example 256, 1-(3-amino-1H-pyrazolo[4,3-c]pyridin-6-yl)-3-(1,2,3,4-tetrahydro-quinolin-3-yl)urea], the half-maximal inhibitory concentration (IC50) amounted to 37.5 nM. Turning to `C[C@@H](NC(=O)Nc1cc2[nH]nc(N3CCc4ncsc4C3)c2cn1)c1ccccc1` [Example 123, 1-[3-(6,7-dihydro[1,3]thiazolo-[5,4-c]pyridin-5(4H)-yl)-1H-pyrazolo[4,3-c]pyridin-6-yl]-3-[(1R)-1-phenylethyl]urea], the IC50 turned out to be 0.4 nM. Same read-out and setting: the value for `C[C@@H](NC(=O)Nc1cc2[nH]nc(Nc3ccc(F)cc3)c2cn1)c1ccccc1` [Example 116, 1-{3-[(4-fluorophenyl)-amino]-1H-pyrazolo[4,3-c]pyridin-6-yl}-3-[(1R)-1-phenylethyl]urea] was 94.2 nM; that for `CCNc1n[nH]c2cc(NC(=O)NCc3ncccc3F)ncc12` [Example 279, 1-[3-(ethylamino)-1H-pyrazolo[4,3-c]pyridin-6-yl]-3-[(3-fluoropyridin-2-yl)methyl]urea] was 63.4 nM. In the case of `CC(C)(O)[C@@H](NC(=O)Nc1cc2[nH]nc(N3CCOCC3)c2cn1)c1ccccc1` [Example 433, 1-[(1S)-2-hydroxy-2-methyl-1-phenylpropyl]-3-(3-morpholin-4-yl-1H-pyrazolo[4,3-c]-pyridin-6-yl)urea], the IC50 was found to be 0.5 nM. Regarding `CC(=O)N1CCc2nc(NC(=O)N[C@H](C)c3ccccc3)cc3[nH]nc1c23` [Example 140, (R)-1-(3-acetyl-1,3,4,5-tetrahydropyrazolo[3,4,5-de][1,6]naphthyridin-7-yl)-3-(1-phenylethyl)urea], the IC50 came out at 111 nM. As for `C[C@@H](NC(=O)Nc1cc2[nH]nc(N)c2c(CO)n1)c1ccccc1` [Example 68, (R)-1-(3-amino-4-(hydroxymethyl)-1H-pyrazolo[4,3-c]pyridin-6-yl)-3-(1-phenylethyl)urea], the IC50 was 0.5 nM.

Take `CC(C)OC(=O)Nc1n[nH]c2cc(NC(=O)N[C@@H](c3ccc(F)cc3)C(C)(C)O)ncc12` [Example 403, 1-methylethyl [6-({[(1S)-1-(4-fluorophenyl)-2-hydroxy-2-methyl-propyl]carbamoyl}amino)-1H-pyrazolo[4,3-c]-pyridin-3-yl]-carbamate]: the IC50 worked out at 1.1 nM. On to `CCNc1n[nH]c2cc(NC(=O)NCc3ncccc3Cl)ncc12` [Example 278, 1-[(3-chloro-pyridin-2-yl)-methyl]-3-[3-(ethylamino)-1H-pyrazolo[4,3-c]-pyridin-6-yl]urea], for which the IC50 turned out to be 21.8 nM.

On to `CC(CCl)Nc1n[nH]c2cc(NC(=O)N[C@H](C)c3ccccc3)ncc12` (stereo partly drawn) [Example 197, 1-{3-[(2-chloro-1-methylethyl)amino]-1H-pyrazolo[4,3-c]pyridin-6-yl}-3-[(1R)-1-phenylethyl]urea], for which the IC50 was 3.1 nM.

Consider `CNc1n[nH]c2cc(NC(=O)N[C@H](C)c3ccccc3)nc(C)c12` [Example 336, 1-[4-methyl-3-(methylamino)-1H-pyrazolo[4,3-c]pyridin-6-yl]-3-[(1R)-1-phenylethyl]urea], for which the IC50 is 11.8 nM.

`COCC(=O)Nc1n[nH]c2cc(NC(=O)N[C@H](C)c3ccccc3)ncc12` [Example 318, (R)-2-methoxy-N-(6-(3-(1-phenylethyl)ureido)-1H-pyrazolo[4,3-c]pyridin-3-yl)acetamide]: the IC50 was found to be 2.2 nM.

In the case of `CC(C)(O)[C@@H](NC(=O)Nc1cc2[nH]nc(NC(=O)OCC(F)F)c2cn1)c1ccc(F)cc1` [Example 406, 2,2-difluoroethyl [6-({[(1S)-1-(4-fluorophenyl)-2-hydroxy-2-methyl-propyl]carbamoyl}amino)-1H-pyrazolo[4,3-c]-pyridin-3-yl]-carbamate], the IC50 was found to be 1.5 nM. On the same count and under the same terms, the value for `CCNc1n[nH]c2cc(NC(=O)N[C@H](C)c3ccc(Cl)c(C)c3)ncc12` [Example 252, 1-[(1R)-1-(4-chloro-3-methyl-phenyl)ethyl]-3-[3-(ethylamino)-1H-pyrazolo[4,3-c]-pyridin-6-yl]urea] was 2 nM. In the case of `C[C@@H](O)[C@@H](NC(=O)Nc1cc2[nH]nc(N3CCOCC3)c2cn1)c1ccc(F)cc1` [Example 97, 1-[(1S,2R)-1-(4-fluorophenyl)-2-hydroxypropyl]-3-(3-morpholin-4-yl-1H-pyrazolo[4,3-c]-pyridin-6-yl)urea], the IC50 was 0.2 nM. Take `CNc1n[nH]c2cc(NC(=O)N[C@H](C)c3ccc(Cl)cc3)ncc12` [Example 343, 1-[(1R)-1-(4-chlorophenyl)ethyl]-3-[3-(methyl-amino)-1H-pyrazolo[4,3-c]-pyridin-6-yl]urea]: the IC50 amounted to 7.8 nM. On the same count and under the same terms, under `C[C@@H](NC(=O)Nc1cc2[nH]nc(N)c2cn1)C1CCCCC1` [Example 255, 1-(3-amino-1H-pyrazolo[4,3-c]pyridin-6-yl)-3-[(1R)-1-cyclohexyl-ethyl]urea] stands 18.1 nM; under `CC[C@@H](NC(=O)Nc1cc2[nH]nc(N)c2cn1)c1ccc(Cl)cc1` [Example 273, 1-(3-amino-1H-pyrazolo[4,3-c]pyridin-6-yl)-3-[(1R)-1-(4-chloro-phenyl)propyl]urea], 2.6 nM.

For the compound `C[C@@H](NC(=O)Nc1cc2[nH]nc(NC3CC[S+]([O-])C3)c2cn1)c1ccccc1` (stereo partly drawn) [Example 360, 1-{3-[(1-oxidotetrahydrothio-phen-3-yl)amino]-1H-pyrazolo[4,3-c]pyridin-6-yl}-3-[(1R)-1-phenylethyl]urea], the IC50 came to 2.6 nM. For `CCNc1n[nH]c2cc(NC(=O)N[C@@H]3CCC[C@H]3OC)ncc12` [Example 411, 1-[3-(ethylamino)-1H-pyrazolo[4,3-c]pyridin-6-yl]-3-[(1R,2R)-2-methoxy-cyclopentyl]urea], the IC50 amounted to 99.3 nM. The same measure, in the same setting: the value for `C[C@@H](NC(=O)Nc1cc2[nH]nc(NC(=O)Cc3ccc(F)cc3)c2cn1)c1ccccc1` [Example 206, 2-(4-fluorophenyl)-N-[6-({[(1R)-1-phenylethyl]-carbamoyl}amino)-1H-pyrazolo[4,3-c]pyridin-3-yl]-acetamide] was 0.5 nM; that for `CC(Nc1n[nH]c2cc(NC(=O)N[C@H](C)c3ccccc3)ncc12)C(F)(F)F` (stereo partly drawn) [Example 418, 1-[(1R)-1-phenylethyl]-3-{3-[(2,2,2-trifluoro-1-methylethyl)amino]-1H-pyrazolo[4,3-c]pyridin-6-yl}urea] was 3.2 nM. On the same count and under the same terms, under `C[C@@H](NC(=O)Nc1cc2[nH]nc(NC3CCCOC3)c2cn1)c1ccccc1` (stereo partly drawn) [Example 174, 1-[(1R)-1-phenylethyl]-3-[3-(tetrahydro-2H-pyran-3-ylamino)-1H-pyrazolo[4,3-c]pyridin-6-yl]urea] stands 4.4 nM; under `CC(CS(C)(=O)=O)Nc1n[nH]c2cc(NC(=O)N[C@H](C)c3ccccc3)ncc12` (stereo partly drawn) [Example 192, 1-(3-{[1-methyl-2-(methylsulfonyl)-ethyl]amino}-1H-pyrazolo[4,3-c]-pyridin-6-yl)-3-[(1R)-1-phenylethyl]urea], 79.8 nM. Still for that read-out and setting: the value for `C[C@@H](NC(=O)Nc1cc2[nH]nc(NC3CCC(N(C)C)CC3)c2cn1)c1ccccc1` (stereo partly drawn) [Example 172, 1-(3-{[4-(dimethylamino)-cyclohexyl]amino}-1H-pyrazolo[4,3-c]pyridin-6-yl)-3-[(1R)-1-phenylethyl]urea] was 31.2 nM. Take `C[C@@H](NC(=O)Nc1cc2[nH]nc(N3CCC(C)(O)CC3)c2cn1)c1ccccc1` [Example 424, 1-[3-(4-hydroxy-4-methylpiperidin-1-yl)-1H-pyrazolo[4,3-c]-pyridin-6-yl]-3-[(1R)-1-phenylethyl]urea]: the IC50 was found to be 21.5 nM. Still for that read-out and setting: under `CC(C)(O)[C@@H](NC(=O)Nc1cc2[nH]nc(N3CCC(F)(F)CC3)c2cn1)c1ccccc1` [Example 366, 1-[3-(4,4-difluoropiperidin-1-yl)-1H-pyrazolo[4,3-c]pyridin-6-yl]-3-[(1S)-2-hydroxy-2-methyl-1-phenylpropyl]urea] stands 0.4 nM; under `CCNc1n[nH]c2cc(NC(=O)NCc3ccc(F)c(Cl)c3)ncc12` [Example 240, 1-(3-chloro-4-fluorobenzyl)-3-[3-(ethylamino)-1H-pyrazolo[4,3-c]-pyridin-6-yl]urea], 14.7 nM.

The record behind these values is patent US9233979B2, “Compounds that are ERK inhibitors” (Merck Sharp & Dohme Corp., priority 2012, dated 2016).
